Results from ChEMBL document CHEMBL5260809, “Isoxazole ring as a useful scaffold in a search for new therapeutic agents” (Eur J Med Chem, 2017).
≈ marks a conversion by molar mass, not a printed value.

How the values were obtained:
MDA-MB-231 = experiment: Antimigratory activity against human MDA-MB-231 cells; assay type: functional, cell-based
[1] = Induction of sodium-22 influx in human TE-671 cells; assay type: functional, cell-based
Rattus norvegicus [2] = species: Rattus norvegicus; experiment: Protective index, ratio of TD50 for rat to ED50 for anticonvulsant activity in rat; assay type: functional
Rattus norvegicus [3] = species: Rattus norvegicus; experiment: Anticonvulsant activity in rat maximal electroshock seizure model; assay type: functional
[4] = Toxicity in rat; details: in vivo
[5] = Selectivity index, ratio of CC50 for human HeLa cells to IC50 for Human rhinovirus 2; assay type: toxicity; details: read-out: Ratio CC50/IC50
[6] = Selectivity index, ratio of CC50 for human HeLa cells to IC50 for Coxsackievirus B3 isolate 97-927; assay type: toxicity; details: read-out: Ratio CC50/IC50
Staphylococcus aureus = experiment: Antibacterial activity against Staphylococcus aureus assessed as zone of inhibition at 50 ug/ml by agar disc diffusion method; assay type: functional; details: read-out: IZ
Escherichia coli = experiment: Antibacterial activity against Escherichia coli assessed as zone of inhibition at 50 ug/ml by agar disc diffusion method; assay type: functional; details: read-out: IZ
[7] = molecular target: T1, Muscarinic acetylcholine receptor M1 (Rattus norvegicus, UniProt P08482); experiment: Agonist activity at rat M1 muscarinic receptor
T1 sequence (P08482 whole entry): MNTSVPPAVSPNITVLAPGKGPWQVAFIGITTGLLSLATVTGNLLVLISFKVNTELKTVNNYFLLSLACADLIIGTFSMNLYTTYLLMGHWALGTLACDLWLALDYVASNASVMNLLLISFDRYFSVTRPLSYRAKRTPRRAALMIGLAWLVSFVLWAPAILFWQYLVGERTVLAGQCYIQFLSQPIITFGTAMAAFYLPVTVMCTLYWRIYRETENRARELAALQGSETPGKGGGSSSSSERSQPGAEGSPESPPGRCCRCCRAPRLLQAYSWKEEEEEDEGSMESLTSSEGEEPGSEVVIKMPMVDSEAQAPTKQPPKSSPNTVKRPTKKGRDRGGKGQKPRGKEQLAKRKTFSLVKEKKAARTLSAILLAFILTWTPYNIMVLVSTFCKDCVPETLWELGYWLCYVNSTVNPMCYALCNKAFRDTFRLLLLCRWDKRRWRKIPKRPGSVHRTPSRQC

[8] = molecular target: T2, Muscarinic acetylcholine receptor M2 (Rattus norvegicus, UniProt P10980); experiment: Agonist activity at rat M2 muscarinic receptor
T2 sequence (P10980 whole entry): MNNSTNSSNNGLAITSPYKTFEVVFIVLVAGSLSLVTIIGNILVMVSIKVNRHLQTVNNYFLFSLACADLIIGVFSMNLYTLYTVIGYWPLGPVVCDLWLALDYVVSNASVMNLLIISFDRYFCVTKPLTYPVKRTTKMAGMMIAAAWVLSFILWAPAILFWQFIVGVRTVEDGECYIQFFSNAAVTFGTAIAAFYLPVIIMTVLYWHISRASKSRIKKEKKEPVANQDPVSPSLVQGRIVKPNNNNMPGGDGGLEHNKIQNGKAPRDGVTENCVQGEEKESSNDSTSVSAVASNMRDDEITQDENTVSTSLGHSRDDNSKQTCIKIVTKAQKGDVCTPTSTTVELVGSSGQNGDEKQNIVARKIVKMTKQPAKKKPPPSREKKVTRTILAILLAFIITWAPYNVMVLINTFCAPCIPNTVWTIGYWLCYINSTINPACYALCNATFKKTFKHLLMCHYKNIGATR

Coxsackievirus B3 = experiment: Antiviral activity against Coxsackievirus B3; assay type: functional, organism-based; details: Enterovirus B
[9] = test system: Human immunodeficiency virus 1; experiment: Antiviral activity against HIV-1 assessed as reduction in multinucleated cells production at 25 ug/ml; assay type: functional; design: scale not given: the % may be the effect or the level left; details: dose 25 µg/ml
Mus musculus = species: Mus musculus; experiment: Antithrombotic activity in Swiss mouse model of collagen and adrenaline-induced thrombosis assessed as increase in bleeding time; assay type: functional

CCc1cc(-c2oncc2-c2ccc(OC)cc2)c(O)cc1OC
IC50 (MDA-MB-231): 150 nM

Cc1cc(C2CC3CCC2N3)on1 (stereo not given)
EC50 [1]: 2600 nM

Cc1cc(NC2=CC(=O)C(C(=O)OC(C)(C)C)C(C)C2)no1 (stereo not given)
Ratio (Rattus norvegicus [2]): >49.6

Cc1cc(C(=O)Nc2c(C)cccc2C)no1
ED50 (Rattus norvegicus [3]): 5.5 mg/kg
TD50 [4]: > 500 mg/kg

Clc1ccc([C@H]2CC3CCC2N3)cn1 (stereo not given in full)
EC50 [1]: 520 nM

Cc1cc(CCCOc2ccc(-c3ccccc3C)cc2)on1
selectivity ratio [5]: 57.5
selectivity ratio [6]: 2.6

CCOC(=O)C1C(c2c(OCc3ccccc3)c(Br)cc3c(Cl)c(Cl)c(=O)oc23)=NOC1c1ccc(C(F)(F)F)cc1 (stereo not given)
zone of inhibition at 50 µg/mL (Staphylococcus aureus): 24 mm
zone of inhibition at 50 µg/mL (Escherichia coli): 20 mm

CCc1cc(-c2oncc2-c2ccc(Br)cc2)c(O)cc1OC
IC50 (MDA-MB-231): 50 nM

Cc1cc(CCCOc2ccc(-c3cccc(F)c3)cc2)on1
selectivity ratio [5]: 230
selectivity ratio [6]: 2.9

Cc1cc(NC(=O)c2c(C)cccc2C)on1
ED50 (Rattus norvegicus [3]): 8.9 mg/kg
TD50 [4]: > 500 mg/kg

C#CCOc1noc2c1CNCCC2C (stereo not given)
EC50 [7]: 1300 nM
EC50 [8]: > 51000 nM

Cc1cc(CCCOc2ccc(-c3ccc(F)cc3)cc2)on1
selectivity ratio [5]: > 5560
selectivity ratio [6]: > 37.3

Cc1cn(Cc2cc([C@@H](Cc3ccccc3)NC(=O)OC(C)(C)C)no2)c(=O)n(C(=O)c2ccccc2)c1=O
EC50 (Coxsackievirus B3): 10.6 µg/mL (≈ 20 µM)

O=C(CBr)c1cc(-c2ccccc2)no1
Activity [9]: 95%

N#Cc1ccc(CN(Cc2cc(-c3ccccc3Cl)on2)C(CCCNC(=N)N)C(N)=O)cc1 (stereo not given)
Activity (Mus musculus): 87.5%

O=C(N[C@H](CO)[C@H](O)c1ccc([N+](=O)[O-])cc1)C(Cl)Cl [CHLORAMPHENICOL]
zone of inhibition at 50 µg/mL (Staphylococcus aureus): 23 mm
zone of inhibition at 50 µg/mL (Escherichia coli): 21 mm

NC(=O)c1ncn([C@@H]2O[C@H](CO)[C@@H](O)[C@H]2O)n1 [RIBAVIRIN]
EC50 (Coxsackievirus B3): 92.5 µg/mL (≈ 379 µM)
